Experimental data taken from patent US6399824B1, “Substituted cinnamic, acid guanidides, process for their preparation, their use as a medicament, and medicament comprising them” (Aventis Pharma Deutschland GmbH, priority 2000, dated 2002).
pIC50: −log10 of the molar value. Counter-ions that a name gives are not always drawn.

How the values were obtained:
[1] = biological target: T1, rNHE3 (Rattus norvegicus, UniProt P26433); test: Recovery of intracellular pH (pHi) after acidification, BCECF fluorescence, NHE inhibition; type: cell-based; conditions: pH recovery recorded 3 minutes for NHE3; bicarbonate-free conditions
T1 construct: expressed in transfected cells
T1 sequence (P26433 29-831): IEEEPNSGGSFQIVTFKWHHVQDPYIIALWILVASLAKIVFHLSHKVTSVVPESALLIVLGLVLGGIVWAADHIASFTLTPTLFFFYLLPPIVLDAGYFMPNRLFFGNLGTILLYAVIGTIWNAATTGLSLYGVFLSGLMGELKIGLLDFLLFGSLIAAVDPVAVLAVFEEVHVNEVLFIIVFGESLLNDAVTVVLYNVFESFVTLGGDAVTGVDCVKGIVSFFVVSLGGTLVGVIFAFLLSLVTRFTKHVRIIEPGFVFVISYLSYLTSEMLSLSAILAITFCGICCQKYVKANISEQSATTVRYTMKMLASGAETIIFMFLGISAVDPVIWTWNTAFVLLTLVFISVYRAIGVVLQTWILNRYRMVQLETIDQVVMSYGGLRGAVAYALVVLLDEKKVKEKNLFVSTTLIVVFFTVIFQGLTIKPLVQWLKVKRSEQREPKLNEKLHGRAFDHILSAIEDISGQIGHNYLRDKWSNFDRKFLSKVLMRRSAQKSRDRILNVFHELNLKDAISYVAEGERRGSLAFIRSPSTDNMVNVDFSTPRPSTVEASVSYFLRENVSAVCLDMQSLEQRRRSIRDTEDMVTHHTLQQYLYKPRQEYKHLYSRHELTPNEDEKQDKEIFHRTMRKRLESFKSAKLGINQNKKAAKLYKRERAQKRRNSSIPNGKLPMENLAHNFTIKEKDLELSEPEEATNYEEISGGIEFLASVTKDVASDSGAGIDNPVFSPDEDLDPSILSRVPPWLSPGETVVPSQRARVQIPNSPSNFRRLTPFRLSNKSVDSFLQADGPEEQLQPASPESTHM
Experimental: In this test, the recovery of the intracellular pH (pHi) which commences with functional NHE after acidification even under bicarbonate-free conditions. For this, the pHi was determined using the pH-sensitive fluorescent dye BCECF (Calbiochem, the precursor BCECF-AM is employed). The cells were first loaded with BCECF. The BCECF fluorescence was determined in a ratio fluorescence spectrometer (Photon Technology International, South Brunswick, N.J., USA) at excitation wavelengths of 505 and 440 nm and an emission wavelength of 535 nm and converted into the pHi by means of calibration curves. During BCECF loading, the cells were already incubated in NH4Cl buffer (pH 7.4) (NH4Cl buffer: 115 mM NaCl, 20 mM NH4Cl, 5 mM KCl, 1 mM CaCl2, 1 mM MgSO4, 20 mM Hepes, 5 mM glucose, 1 mg/ml of BSA; a pH of 7.4 is set using 1 M NaOH). The intracellular acidification was induced by addition of 975 μl of an NH4Cl-free buffer (see below) to 25 μl aliquots of the cells incubated in NH4Cl buffer. The subsequent rate of the pH recovery was recorded for 2 minutes in the case of NHE1, for 5 minutes in the case of NHE2 and 3 minutes in the case of NHE3. For the calculation of the inhibitory potency of the tested substances, the cells were first investigated in buffers in which a complete recovery or no pH recovery at all took place. For complete pH recovery (100%), the cells were incubated in Na^+-containing buffer (133.8 mM NaCl, 4.7 mM KCl, 1.25 mM CaCl2, 1.25 mM MgCl2, 0.97 mM Na2HPO4, 0.23 mM NaH2PO4, 5 mM Hepes, 5 mM glucose, a pH of 7.0 is set using 1 M NaOH). For the determination of the 0% value, the cells were incubated in an Na^+-free buffer (133.8 mM choline chloride, 4.7 mM KCl, 1.25 mM CaCl2, 1.25 mM MgCl2, 0.97 mM K2HPO4, 0.23 mM KH2PO4, 5 mM Hepes, 5 mM glucose, a pH of 7.0 is set using 1 M NaOH). The substances to be tested were applied in the Na^+-containing buffer. The recovery of the intracellular pH at any tested concentration of a substance was expressed as a percentage of the maximum recovery. By means of the program Sigma Plot, the IC50 value of the respective substance for the individual NHE subtypes was calculated from the percentage values of the pH recovery.

[2] = Solubility by UV spectroscopy in 0.9% strength NaCl solution; type: physicochemical; conditions: 0.9% NaCl solution, saline or isotonic
Experimental: The solubilities indicated below are determined by UV spectroscopy in a 0.9% strength NaCl solution.

CNC(=O)NS(=O)(=O)c1ccc(Oc2c(F)cc(/C=C(\C)C(=O)N=C(N)N)cc2F)cc1 [Example 8, 4-[2 ,6-Difluoro-4-(3-guanidino-2-methyl-3-oxopropenyl)phenoxy]benzenesulfone N-(carboxy-N′-methylamid)amide; HCl salt]
pIC50 [1]: 7.05

C/C(=C\c1cc(F)c(Oc2ccc(S(N)(=O)=O)cc2)c(F)c1)C(=O)N=C(N)N [Example 1, 4-[2,6-Difluoro-4-(3-guanidino-2-methyl-3-oxopropenyl)phenoxy]benzenesulfonamide; HCl salt]
pIC50 [1]: 7.15

C/C(=C\c1ccc(Nc2ccc(S(=O)(=O)N3CCN(C)CC3)cc2)cc1)C(=O)N=C(N)N.Cl.Cl [Example 12, N-(2-Methyl-3-{4-[4-(4-methylpiperazine-1-sulfonyl)phenylamino]phenyl}acryloyl)-guanidine; HCl salt]
solubility [2]: 1760 µg/mL
pIC50 [1]: 5.59

C/C(=C\c1cc(F)c(Oc2ccc(S(N)(=O)=O)cc2)c(F)c1)C(=O)N=C(N)N [Example 2, 4-[2,6-Difluoro-4-(3-guanidino-2-methyl-3-oxopropenyl)phenoxy]benzenesulfonamide; methanesulfonate]
pIC50 [1]: 7.70

C/C(=C\c1ccc(Nc2ccc(S(=O)(=O)NCCN3CCCC3)cc2)cc1)C(=O)N=C(N)N.Cl.Cl [Example 11, 4-[4-(3-Guanidino-2-methyl-3-oxopropenyl)phenylamino]-N-(2-pyrrolidin-1-ylethyl)-benzenesulfonamide; HCl salt]
solubility [2]: 1520 µg/mL
pIC50 [1]: 6.07

C/C(=C\c1ccc(Oc2ccc(S(N)(=O)=O)cc2)cc1)C(=O)N=C(N)N [Example 3, 4-[4-(3-Guanidino-2-methyl-3-oxopropenyl)phenoxy]benzenesulfonamide; HCl salt]
pIC50 [1]: 6.89

CNS(=O)(=O)c1ccc(Nc2ccc(/C=C(\C)C(=O)N=C(N)N)cc2)cc1 [Example 14, 4-[4-(3-Guanidino-2-methyl-3-oxopropenyl)phenylamino]-N-methylbenzenesulfonamide; HCl salt]
pIC50 [1]: 6.07

CCNC(=O)NS(=O)(=O)c1ccc(Oc2c(F)cc(/C=C(\C)C(=O)N=C(N)N)cc2F)cc1 [Example 9, 4-[2,6-Difluoro-4-(3-guanidino-2-methyl-3-oxopropenyl)phenoxy]benzenesulfone N-(carboxy-N′-ethylamid)amide; HCl salt]
pIC50 [1]: 7.15

C/C(=C\c1ccc(Nc2ccc(S(=O)(=O)NCCN(C)C)cc2)cc1)C(=O)N=C(N)N.Cl.Cl [Example 10, N-(2-Dimethylaminoethyl)-4-[4-(3-guanidino-2-methyl-3-oxopropenyl)phenylamino]-benzenesulfonamide; HCl salt]
solubility [2]: 1280 µg/mL
pIC50 [1]: 5.96

C/C(=C\c1cc(F)c(Oc2ccc(S(=O)(=O)NCCN(C)C)cc2)c(F)c1)C(=O)N=C(N)N.Cl.Cl [Example 6, 4-[2 ,6-Difluoro-4-(3-guanidino-2-methyl-3-oxopropenyl)phenoxy]-N-(2-dimethylaminoethyl)benzenesulfonamide, HCl salt]
solubility [2]: 1860 µg/mL
pIC50 [1]: 7.22

C/C(=C\c1ccc(Nc2ccc(S(=O)(=O)N(C)C3CCN(C)C3)cc2)cc1)C(=O)N=C(N)N.Cl.Cl (centres unmarked) [Example 13, 4-[4-(3-Guanidino-2-methyl-3-oxopropenyl)phenylamino]-N-methyl-N-(1-methyl-pyrrolidin-3-yl)benzenesulfonamide, HCl salt]
solubility [2]: 3080 µg/mL
pIC50 [1]: 6.23

C/C(=C\c1cc(F)c(Oc2ccc(S(=O)(=O)N3CCN(C)CC3)cc2)c(F)c1)C(=O)N=C(N)N [Example 7, N-(3-{3,5-Difluoro-4-[4-(4-methylpiperazin-1-sulfonyl)phenoxy]phenyl}-2-methyl-acryloyl)guanidine; trifluoroacetate]
solubility [2]: > 2190 µg/mL
pIC50 [1]: 5.59

C/C(=C\c1ccc(Nc2ccc(S(N)(=O)=O)cc2)cc1)C(=O)N=C(N)N [Example 4, 4-[4-(3-Guanidino-2-methyl-3-oxopropenyl)phenylamino]benzenesulfonamide; trifluoroacetate]
pIC50 [1]: 6.21

C/C(=C\c1ccc(Nc2cccc(S(N)(=O)=O)c2)cc1)C(=O)N=C(N)N [Example 5, 3-[4-(3-Guanidino-2-methyl-3-oxopropenyl)phenylamino]benzenesulfonamide, trifluoroacetate]
pIC50 [1]: 5.92
